Test results as given in ChEMBL document CHEMBL1122453, “Structure-activity relationships in the antiinflammatory steroids: a pattern-recognition approach” (1983).
Calls of active or inactive are those of the source. The rule behind the calls is not given here.

Legend:
[1] = organism: Homo sapiens; assay: Potency relative to fluocinolone 16,17-acetonide(Experimental vasoconstictor activity) in human;NA =Not active; type: functional, organism-based
[2] = organism: Rattus norvegicus; assay: Anti-inflammatory effect in rat granuloma assay, activity relative to hydrocortisone and hydrocortisone 21-acetate; type: functional
[3] = organism: Homo sapiens; assay: Potency relative to fluocinolone 16,17-acetonide(Experimental vasoconstictor activity) in human; 900-1080; type: functional
[4] = organism: Homo sapiens; assay: Potency relative to fluocinolone 16,17-acetonide in the human vasoconstictor test; type: functional
[5] = organism: Homo sapiens
[6] = organism: Homo sapiens; assay: PPotency relative to fluocinolone 16,17-acetonide(Experimental vasoconstictor activity) in human; NA= Not active; type: functional, organism-based
[7] = organism: Homo sapiens; assay: Potency relative to fluocinolone 16,17-acetonide(Experimental vasoconstictor activity) in human; 16-34; type: functional
[8] = organism: Homo sapiens; assay: Potency relative to fluocinolone 16,17-acetonide(Experimental vasoconstictor activity)in human; NA= Not active; type: functional, organism-based
[9] = organism: Homo sapiens; assay: Potency relative to fluocinolone 16,17-acetonide(Experimental vasoconstictor activity) in human; 100-300; type: functional
[10] = organism: Homo sapiens; assay: Potency relative to fluocinolone 16,17-acetonide(Experimental vasoconstictor activity) in human; 15-45; type: functional
[11] = organism: Homo sapiens; assay: Potency relative to fluocinolone 16,17-acetonide(Experimental vasoconstictor activity) in human; type: functional
[12] = organism: Homo sapiens; assay: Potency relative to fluocinolone 16,17-acetonide(Experimental vasoconstictor activity) in human;NA = Not active; type: functional, organism-based
[13] = organism: Rattus norvegicus; assay: Experimental relative rat granuloma activity (relative to hydrocortisone and hydrocortisone 21-acetate); 0.15-0.5; type: functional
[14] = organism: Rattus norvegicus; assay: Experimental relative rat granuloma activity (relative to hydrocortisone and hydrocortisone 21-acetate); 200-500; type: functional

| SMILES | Potency [2] | Potency [5] | also measured |
| --- | --- | --- | --- |
| CC1(C)O[C@@H]2C[C@H]3[C@@H]4CCC5=CC(=O)C=C[C@]5(C)[C@H]4[C@@H](O)C[C@]3(C)[C@]2(C(=O)CO)O1 [DESONIDE] | 66.2 | – | Potency [1]: inactive |
| CCCC(=O)O[C@]1(C(C)=O)CCC2C3C[C@H](F)C4=CC(=O)C=CC4(C)[C@@]3(F)C(O)CC21C (some centres undefined) | – | – | Potency [3]: 900 |
| C[C@]12C[C@H](O)[C@H]3[C@@H](CCC4=CC(=O)CC[C@@]43C)[C@@H]1CC[C@@H]2C(=O)CO [CORTICOSTERONE] | 0.3 | – | Potency [4]: 0.3 |
| CC12CCC(=O)C=C1CCC1C2[C@@H](O)CC2(C)C1CC[C@]2(O)C(=O)OCCl (some centres undefined) | – | inactive | – |
| CCC(=O)O[C@]1(C(=O)C(=O)OCCl)CC[C@H]2C3CCC4=CC(=O)CCC4(C)C3[C@@H](O)CC21C (some centres undefined) | – | inactive | – |
| CC(=O)OCC(=O)[C@@]1(O)CC[C@H]2[C@@H]3CCC4=CC(=O)CC[C@]4(C)[C@@]3(F)[C@@H](O)C[C@@]21C [FLUDROCORTISONE ACETATE] | 7.3 | – | Potency [4]: 1 |
| CC1(C)O[C@@H]2CC3C4CCC5=CC(=O)C=CC5(C)C4[C@@H](O)CC3(C)[C@]2(C(=O)CCl)O1 (some centres undefined) | – | – | Potency [6]: inactive |
| C[C@H]1CC2C3CCC4=CC(=O)C=CC4(C)[C@@]3(F)[C@@H](O)CC2(C)[C@@]1(O)C(=O)CCl (some centres undefined) | – | inactive | – |
| CCCC(=O)OCC(=O)[C@@]1(OC(C)=O)CCC2C3C[C@H](F)C4=CC(=O)C=CC4(C)[C@@]3(F)C(O)CC21C (some centres undefined) | – | inactive | – |
| CCCCC(=O)O[C@]1(C(=O)CO)CCC2C3CCC4=CC(=O)CCC4(C)C3C(O)CC21C (some centres undefined) | – | – | Potency [7]: 16 |
| C[C@H]1C[C@H]2[C@@H]3CCC4=CC(=O)C=C[C@]4(C)[C@@]3(F)[C@@H](O)C[C@]2(C)[C@@]1(O)C(=O)CO [BETAMETHASONE] | 35.8 | – | Potency [4]: 0.8 |
| CCC(=O)OCC(=O)C1(C)C(C)CC2C3CCC4=CC(=O)C=CC4(C)[C@@]3(F)CCC21C (some centres undefined) | – | inactive | – |
| CCCCC(=O)OCC(=O)[C@H]1[C@H](C)C[C@H]2[C@@H]3C[C@H](F)C4=CC(=O)C=C[C@]4(C)[C@@]3(F)[C@@H](O)C[C@@]21C | – | – | Potency [8]: inactive |
| C[C@@H]1CC2C3C[C@H](Cl)C4=CC(=O)C=CC4(C)C3C(O)CC2(C)C1C(=O)COC(=O)C(C)(C)C (some centres undefined) | – | inactive | – |
| C[C@@H]1CC2C3CCC4=CC(=O)C=CC4(C)[C@@]3(F)[C@@H](O)CC2(C)[C@@]1(C)C(=O)CO (some centres undefined) | – | inactive | – |
| C[C@@H]1C[C@H]2[C@@H]3CCC4=CC(=O)C=C[C@]4(C)[C@@]3(F)[C@@H](O)C[C@]2(C)[C@@]1(O)C(=O)CO [DEXAMETHASONE] | 200 | – | Potency [4]: 1 |
| CC(=O)OCC(=O)[C@@]1(O)CC[C@H]2[C@@H]3CCC4=CC(=O)CC[C@]4(C)[C@H]3[C@@H](O)C[C@@]21C [HYDROCORTISONE ACETATE] | 1 | – | Potency [4]: 1 |
| CC1(C)O[C@@H]2C[C@H]3[C@@H]4CCC5=CC(=O)CC[C@]5(C)[C@@]4(F)[C@@H](O)C[C@]3(C)[C@]2(C(=O)CCl)O1 [HALCINONIDE] | – | inactive | Potency [4]: >360 |
| CCCC(=O)O[C@]1(C(=O)CO)CC[C@H]2[C@@H]3CCC4=CC(=O)CC[C@]4(C)[C@H]3[C@@H](O)C[C@@]21C [HYDROCORTISONE BUTYRATE] | 1 | – | Potency [4]: 50 |
| C[C@@H]1CC2C3C[C@H](F)C4=CC(=O)C=CC4(C)[C@@]3(F)C(O)CC2(C)C1C(=O)COC(=O)C(C)(C)C (some centres undefined) | – | inactive | – |
| CCC(=O)[C@@]1(C)[C@H](C)CC2C3CCC4=CC(=O)C=C[C@]4(C)C3[C@@H](O)C[C@@]21C (some centres undefined) | – | inactive | – |
| CC(=O)OCC(=O)[C@@]1(O)CC[C@H]2[C@@H]3CCC4=CC(=O)C=C[C@]4(C)[C@H]3[C@@H](O)C[C@@]21C [PREDNISOLONE ACETATE] | 3 | – | Potency [4]: 1 |
| C[C@@H]1CC2C3CCC4=CC(=O)C=CC4(C)[C@@]3(F)C(O)CC2(C)C1C(=O)CO (some centres undefined) [DEOXYMETHASONE] | 10 | inactive | – |
| C[C@]12C=CC(=O)C=C1CC[C@@H]1[C@@H]2[C@@H](O)C[C@@]2(C)[C@H]1CC[C@]2(O)C(=O)CO [PREDNISOLONE] | 3 | – | Potency [4]: 0.1 |

| SMILES | Potency [2] | Potency [5] | also measured |
| --- | --- | --- | --- |
| C[C@@H]1C[C@H]2[C@@H]3C[C@H](F)C4=CC(=O)C=C[C@]4(C)[C@H]3[C@@H](O)C[C@]2(C)[C@@]1(O)C(=O)CO [PARAMETHASONE] | 63.6 | inactive | – |
| CCCCC(=O)O[C@]1(C(=O)COC(C)=O)CCC2C3CCC4=CC(=O)C=CC4(C)C3C(O)CC21C (some centres undefined) | – | inactive | – |
| CC1(C)O[C@@H]2CC3C4C[C@H](F)C5=CC(=O)C=CC5(C)[C@@]4(F)[C@@H](O)CC3(C)[C@]2(C(=O)C(=O)OCCl)O1 (some centres undefined) | – | inactive | – |
| C[C@H]1C[C@@H]2[C@H]([C@@H](O)C[C@@]3(C)[C@H]2CC[C@]3(O)C(=O)CO)[C@@]2(C)C=CC(=O)C=C12 (stereo in doubt) [METHYLPREDNISOLONE] | 5 | – | Potency [4]: 0.1 |
| CC1(C)O[C@@H]2CC3C4CCC5=CC(=O)CCC5(C)C4[C@@H](O)CC3(C)[C@]2(C(=O)CCl)O1 (some centres undefined) | – | inactive | – |
| CC1(C)O[C@@H]2C[C@H]3[C@@H]4C[C@H](F)C5=CC(=O)CC[C@]5(C)[C@H]4[C@@H](O)C[C@]3(C)[C@]2(C(=O)CO)O1 [FLURANDRENOLIDE] | – | – | Potency [9]: 100; Potency [4]: 12 |
| CC(=O)O[C@]1(C(=O)CO)CCC2C3CCC4=CC(=O)CCC4(C)C3C(O)CC21C (some centres undefined) | – | inactive | – |
| C[C@]12C=CC(=O)C=C1[C@@H](F)C[C@H]1[C@@H]3C[C@@H](O)[C@](O)(C(=O)CO)[C@@]3(C)C[C@H](O)[C@@]12F [FLUOCINOLONE] | 19.7 | – | Potency [10]: 15 |
| CC1(C)O[C@@H]2C[C@H]3[C@@H]4C[C@H](F)C5=CC(=O)C=C[C@]5(C)[C@@]4(F)[C@@H](O)C[C@]3(C)[C@]2(C(=O)CO)O1 [FLUOCINOLONE ACETONIDE] | 450 | – | Potency [11]: 100 |
| C[C@]12CCC(=O)C=C1CC[C@@H]1[C@@H]2[C@@H](O)C[C@@]2(C)[C@H]1CC[C@]2(O)C(=O)CO [HYDROCORTISONE] | 1 | – | Potency [4]: <1 |
| CC1CC2C3CCC4=CC(=O)C=CC4(C)[C@@]3(F)C(O)CC2(C)[C@@]1(O)C(=O)COP(=O)(O)O (some centres undefined) | – | inactive | – |
| CC(=O)OCC(=O)[C@]1(O)C2(C)C[C@H](O)C3C(CCC4=CC(=O)C=CC43C)C2C[C@@]1(C)O (some centres undefined) | – | inactive | – |
| CCC(=O)O[C@]1(C(=O)OCCl)CCC2C3CCC4=CC(=O)CCC4(C)C3[C@@H](O)CC21C (some centres undefined) | – | inactive | – |
| CC(=O)OCC(=O)[C@@]1(O)[C@H](C)CC2C3C[C@H](F)C4=CC(=O)C=CC4(C)C3C(O)CC21C (some centres undefined) | 60 | – | Potency [12]: inactive |
| CC(=O)OCC(=O)[C@@]1(O)CCC2C3CCC4=CC(=O)CCC4(C)[C@@]3(Cl)[C@@H](Cl)CC21C (some centres undefined) | – | – | Potency [13]: 0.15 |
| C[C@@H]1C[C@H]2[C@@H]3C[C@H](F)C4=CC(=O)C=C[C@]4(C)[C@@]3(F)[C@@H](O)C[C@]2(C)[C@@]1(O)C(=O)CO [FLUMETHASONE] | – | – | Potency [14]: 200 |
| C[C@@H]1C[C@H]2[C@@H]3C[C@H](F)C4=CC(=O)C=C[C@]4(C)[C@H]3[C@@H](O)C[C@]2(C)[C@H]1C(=O)CO [FLUOCORTOLONE] | 350 | – | Potency [8]: inactive |
| CC(=O)OCC(=O)[C@@]1(O)CCC2C3CCC4=CC(=O)[C@H](C)CC4(C)[C@@]3(F)C(O)CC21C (some centres undefined) | 9 | – | – |
| CC(=O)OCC(=O)[C@@]1(O)CCC2C3C[C@H](F)C4=CC(=O)CCC4(C)C3C(O)CC21C (some centres undefined) | 10 | – | – |
| CC(=O)OCC(=O)[C@@]1(O)CCC2C3CCC4=CC(=O)C=CC4(C)C3[C@@H](Cl)CC21C (some centres undefined) | – | – | Potency [13]: 0.15 |
| CC(=O)OCC(=O)[C@@]1(O)CCC2C3C[C@H](Cl)C4=CC(=O)CCC4(C)C3C(=O)CC21C (some centres undefined) | 1 | – | – |
| C[C@]12C=CC(=O)C=C1CC[C@H]1[C@@H]3C[C@@H](O)[C@](O)(C(=O)CO)[C@@]3(C)C[C@H](O)[C@@]12F [TRIAMCINOLONE] | 2.6 | – | Potency [4]: 0.01 |
| CC1(C)O[C@@H]2C[C@H]3[C@@H]4CCC5=CC(=O)C=C[C@]5(C)[C@@]4(F)[C@@H](O)C[C@]3(C)[C@]2(C(=O)CO)O1 [TRIAMCINOLONE ACETONIDE] | 49 | – | Potency [4]: 100 |
| CC(=O)OCC(=O)[C@@]1(O)CCC2C3CCC4=CC(=O)C=CC4(C)[C@@]3(Cl)[C@@H](Cl)CC21C (some centres undefined) | 0.5 | – | – |
